Laboratory results published in patent publication US9493468B2, “Antifungal 5,6-dihydro-4H-pyrrolo[1,2-a][1,4]benzo-diazepines and 6H-pyrrolo[1,2-a][1,4]benzodiazepines substituted with heterocyclic derivatives” (Janssen Pharmaceutica NV, priority 2011, dated 2016).

Assays:
Type in all cases: cell-based
[1] = tested on: Trichophyton mentagrophytes; experiment: Antifungal activity in vitro, resazurin growth inhibition: Trichophyton mentagrophytes (B70554)
Description: (§1) The standard susceptibility screen is performed in 96-well plates (U-bottom, Greiner Bio-One). Serial dilutions (2-fold or 4-fold) of 20 mM compound stock solutions are made in 100% DMSO, followed by an intermediate dilution step in water. These serial dilutions (10 μl) are then spotted onto test-plates that can be stored in the dark at 4° C. for a maximum period of 2 weeks. An adequate broad dose-range is included with 64 μM as the highest in-test concentration. The culture medium RPMI-1640 is supplemented with L-glutamine, 2% glucose and buffered with 3-(N-morpholino)-propanesulfonic acid (MOPS) at pH 7.0±0.1.
(§2) The different fungal species/isolates (Table 3a) are cryopreserved and 1/1000 diluted in medium just prior to use. A standard inoculum of 200 μl containing 10^3 colony-forming unit (cfu) is then added to each well. A positive control (100% growth=fungal culture without antifungal) and a negative control (0% growth ═RPMI-MOPS medium) are included on each plate. Optimal incubation time and temperature are dependent on the fungal species and vary from 24 h for yeasts (37° C.) to one week or more for dermatophytes (27° C.). Inhibition of fungal growth is measured after adding 10 μl of 0.005% (w/v) resazurin (Sigma Aldrich) to each well, based on the principle that living cells convert the non-fluorescent blue resazurin into the pink and fluorescent resorufin, allowing fluorimetric reading (λex 550 nm and λem 590 nm) after an additional incubation period (‘resa’ time mentioned in Table 3a).

Trichophyton rubrum = experiment: Antifungal activity in vitro, resazurin growth inhibition: Trichophyton rubrum (B68183)
Description: as §1, §2

Microsporum canis = experiment: Antifungal activity in vitro, resazurin growth inhibition: Microsporum canis (B68128)
Description: as §1, §2

Sporothrix schenkii = experiment: Antifungal activity in vitro, resazurin growth inhibition: Sporothrix schenkii (B62482)
Description: as §1, §2

Cryptococcus neoformans = experiment: Antifungal activity in vitro, resazurin growth inhibition: Cryptococcus neoformans (B66663)
Description: as §1, §2

Candida parapsilosis = experiment: Antifungal activity in vitro, resazurin growth inhibition: Candida parapsilosis (B66126)
Description: as §1, §2

Aspergillus fumigatus = experiment: Antifungal activity in vitro, resazurin growth inhibition: Aspergillus fumigatus (B42928)
Description: as §1, §2

SMILES | Inf. G: Trichophyton mentagrophytes B70554, pIC50 [1] | Inf. C: Trichophyton rubrum B68183, pIC50 (Trichophyton rubrum) | Inf. B: Microsporum canis B68128, pIC50 (Microsporum canis) | Inf. A: Sporothrix schenkii B62482, pIC50 (Sporothrix schenkii) | Inf. F: Cryptococcus neoformans B66663, pIC50 (Cryptococcus neoformans) | Inf. D: Candida parapsilosis B66126, pIC50 (Candida parapsilosis) | Inf. E: Aspergillus fumigatus B42928, pIC50 (Aspergillus fumigatus)
Cc1cccc2c1-n1cccc1C(c1cc3ccccc3o1)NC2.Cl (racemic) [Compound 33] | 4.98 | 4.49 | 5.22 | <4.19 | 4.38 | <4.19 | <4.19
Cl.Clc1ccc2oc(C3NCc4c(Cl)cccc4-n4cccc43)cc2c1 (racemic) [Compound 35] | 5.70 | 6.07 | 5.70 | <4.19 | <4.19 | <4.19 | <4.19
Cc1cccc2oc(C3NCc4c(Cl)cccc4-n4cccc43)cc12.Cl (racemic) [Compound 36] | 5.21 | 5.10 | 5.19 | <4.19 | <4.19 | <4.19 | <4.19
Cc1cccc2oc(C3NCc4ccc(Cl)cc4-n4cccc43)cc12.Cl (racemic) [Compound 37] | 4.41 | 5.31 | 4.38 | <4.19 | 5.39 | <4.19 | <4.19
Cc1ccc2cc(C3NCc4ccccc4-n4cccc43)oc2c1.Cl (racemic) [Compound 38] | 5.22 | 5.22 | 5.15 | 4.40 | <4.19 | <4.19 | 4.41
Cc1ccc2cc(C3NCc4c(Cl)cccc4-n4cccc43)oc2c1.Cl (racemic) [Compound 39] | 5.15 | 5.15 | 5.52 | 5.52 | <4.19 | <4.19 | 5.52
Cc1ccc2cc(C3NCc4c(C)cccc4-n4cccc43)oc2c1.Cl (racemic) [Compound 40] | 4.47 | 4.77 | 5.52 | <4.19 | <4.19 | <4.19 | <4.19
Cc1ccc2cc(C3NCc4c(Cl)cc(Cl)cc4-n4cccc43)oc2c1.Cl (racemic) [Compound 41] | <4.19 | 4.80 | <4.19 | <4.19 | <4.19 | <4.19 | <4.19
COc1cccc2cc(C3NCc4ccc(Cl)cc4-n4cccc43)oc12.Cl (racemic) [Compound 42] | 4.49 | 5.06 | 4.19 | <4.19 | 4.89 | <4.19 | <4.19
COc1cccc2cc(C3NCc4c(Cl)cc(Cl)cc4-n4cccc43)oc12.Cl (racemic) [Compound 43] | <4.19 | 4.30 | 4.52 | <4.19 | <4.19 | <4.19 | <4.19
COc1ccc2oc(C3NCc4c(Cl)cccc4-n4cccc43)cc2c1.Cl (racemic) [Compound 44] | 4.77 | 5.20 | 5.31 | <4.19 | <4.19 | <4.19 | <4.19
COc1ccc2oc(C3NCc4ccc(Cl)cc4-n4cccc43)cc2c1.Cl (racemic) [Compound 45] | <4.19 | 5.09 | 5.32 | 4.80 | 4.62 | <4.19 | <4.19
COc1ccc2oc(C3NCc4c(Cl)cc(Cl)cc4-n4cccc43)cc2c1.Cl (racemic) [Compound 46] | <4.19 | <4.19 | 5.12 | <4.19 | <4.19 | <4.19 | <4.19
Cl.Fc1ccc2oc(C3NCc4ccc(Cl)cc4-n4cccc43)cc2c1 (racemic) [Compound 48] | <4.19 | 5.39 | 4.30 | <4.19 | 4.84 | <4.19 | <4.19
Cl.Fc1ccc2oc(C3NCc4c(Cl)cc(Cl)cc4-n4cccc43)cc2c1 (racemic) [Compound 49] | <4.19 | 5.28 | 4.82 | <4.80 | <4.19 | <4.19 | <4.19
Cc1nc2ccc(C3NCc4c(Cl)cccc4-n4cccc43)cc2o1.Cl (racemic) [Compound 50] | <4.19 | 4.49 | 4.56 | <4.19 | <4.19 | <4.19 | <4.19
Cl.Clc1cc2oc(C3NCc4c(Cl)cccc4-n4cccc43)cc2cn1 (racemic) [Compound 51] | 4.94 | 5.63 | 5.40 | <4.19 | 4.45 | <4.19 | <4.19
Cl.c1ccc2c(c1)CNC(c1cc3ccccc3s1)c1cccn1-2 (racemic) [Compound 52] | 5.70 | 6.13 | 5.70 | 5.40 | 6.00 | <4.19 | 5.30
Cl.Clc1cccc2c1CNC(c1cc3ccccc3s1)c1cccn1-2 (racemic) [Compound 53] | 5.70 | 6.10 | 5.70 | 4.92 | 5.70 | <4.19 | 5.40
Cl.Clc1cc(Cl)c2c(c1)-n1cccc1C(c1cc3ccccc3s1)NC2 (racemic) [Compound 56] | 4.48 | 5.71 | <4.19 | <4.19 | <4.19 | <4.19 | <4.19
Cc1ccc(Cl)c2c1-n1cccc1C(c1cc3ccccc3s1)NC2.Cl (racemic) [Compound 57] | <4.19 | 5.10 | 5.24 | <4.19 | <4.19 | <4.19 | <4.19
